Results from ChEMBL document CHEMBL4393720, “Design, synthesis and biological evaluation of bromophenol-thiazolylhydrazone hybrids inhibiting the interaction of translation initiation factors eIF4E/eIF4G as multifunctional agents for cancer treatment” (Eur J Med Chem, 2019).
pIC50: −log10 of the molar value. Calls of active or inactive are those of the source. No cut-off for these calls is given here.

Assays:
[1] = Acute toxicity in SPF Kunming mouse assessed as body weight at 2000 mg/kg, po administered as single dose measured at day 7 (reference value: 30.2g); assay type: organism-based; details: in vivo
[2] = Acute toxicity in SPF Kunming mouse assessed as body weight at 500 mg/kg, po administered as single dose measured at day 14 (reference value: 34.7g); assay type: organism-based; details: in vivo
[3] = Cmax in female Sprague-Dawley rat at 2 mg/kg, iv measured up to 24 hrs by LC/MS-MS analysis; assay type: ADME, organism-based; set-up: dose 2 mg/kg, route intravenous; details: in vivo
A549 [4] = test: Inhibition of eIF4E/eIF4G interaction in human A549 cells at 2.5 uM incubated for 24 hrs by proximity ligation assay; assay type: cell-based
A549 [5] = test: Induction of autophagy in human A549 cells assessed as autophagic bodies formation at 2.5 uM incubated for 48 hrs by transmission electron microscopy; assay type: functional, cell-based
[6] = Subacute toxicity in SPF Kunming mouse assessed as body weight at 2000 mg/kg, po administered once a day for 14 days (reference value: 32g); assay type: organism-based; details: in vivo, 336 h
[7] = Volume of distribution in steady state in male Sprague-Dawley rat at 2 mg/kg, iv measured up to 24 hrs by LC/MS-MS analysis; assay type: ADME, organism-based; details: in vivo, read-out: Vdss
[8] = Cmax in male Sprague-Dawley rat at 10 mg/kg, po measured up to 24 hrs by LC/MS-MS analysis; assay type: ADME, organism-based; set-up: dose 10 mg/kg, route oral; details: in vivo
[9] = Toxicity in athymic nude mouse xenografted with human A549 cells assessed as effect on kidney morphological changes at 25 to 50 mg/kg, ip administered once daily for 21 days by H and E staining based assay; assay type: organism-based; details: in vivo, 504 h
A549 [10] = test: Induction of mitochondrial membrane potential loss in human A549 cells at 1 to 5 uM incubated for 48 hrs by JC-1 staining based flow cytometer analysis; assay type: functional, cell-based
A549 [11] = test: Antiproliferative activity against human A549 cells assessed as inhibition of cell growth incubated for 48 hrs by MTT assay; assay type: functional, cell-based; details: A549, 48 h
A549 [12] = test: In vivo inhibition of PI3K/Akt/mTOR in human A549 cells xenografted in athymic nude mouse assessed as decrease in phosphorylation of 4EBP1 at 25 to 50 mg/kg, ip administered once daily for 21 days by immunocytochemistry; assay type: functional, organism-based
[13] = Inhibition of PI3K/Akt/mTOR in human A549 cells assessed as increase in eIF4E/4EBP1 interaction incubated for 48 hrs by m7GTP pull down assay; assay type: cell-based
A549 [14] = test: Induction of apoptosis in human A549 cells at 2.5 uM incubated for 48 hrs in presence of pan caspase inhibitor, Z-VAD-FMK by annexin-V and propidium iodide staining based flow cytometric analysis; assay type: functional, cell-based
A549 [15] = test: In vivo inhibition of PI3K/Akt/mTOR signalling pathway in human A549 cells xenografted in athymic nude mouse assessed as decrease in phosphorylation of mTOR at 25 to 50 mg/kg, ip administered once daily for 21 days by Western blot analysis; assay type: functional, organism-based
[16] = Acute toxicity in SPF Kunming mouse assessed as body weight at 1000 mg/kg, po administered as single dose measured at day 14 (reference value: 34.7g); assay type: organism-based; details: in vivo
A549 [17] = test: Antitumor activity against human A549 cells xenografted in athymic nude mouse assessed as decrease in tumor growth at 50 mg/kg, ip administered once daily for 21 days; assay type: functional; details: 504 h
A549 [18] = test: Induction of apoptosis in human A549 cells assessed as decrease in Bcl2 level at 1 to 5 uM incubated for 48 hrs by Western blot analysis; assay type: functional, cell-based
[19] = target: Eukaryotic translation initiation factor 4E (Homo sapiens) (UniProt P06730); test: Inhibition of eIF4E phosphorylation in human A549 cells assessed as decrease in c-myc expression at 1 to 5 uM incubated for 48 hrs by western blot analysis; assay type: cell-based
[20] = Volume of distribution in steady state in female Sprague-Dawley rat at 2 mg/kg, iv measured up to 24 hrs by LC/MS-MS analysis; assay type: ADME, organism-based; details: in vivo, read-out: Vdss
HUVEC = test: Antiproliferative activity against human HUVEC cells assessed as inhibition of cell growth incubated for 48 hrs by MTT assay; assay type: cell-based
A549 [21] = test: Induction of apoptosis in human A549 cells at 1 to 5 uM incubated for 48 hrs by annexin-V and propidium iodide staining based flow cytometric analysis; assay type: functional, cell-based
[22] = Acute toxicity in SPF Kunming mouse assessed as body weight at 1000 mg/kg, po administered as single dose measured at day 7 (reference value: 30.2g); assay type: organism-based; details: in vivo
[23] = Half life in female Sprague-Dawley rat at 10 mg/kg, po measured up to 24 hrs by LC/MS-MS analysis; assay type: ADME, organism-based; details: in vivo
[24] = Oral bioavailability in male Sprague-Dawley rat at 10 mg/kg measured up to 24 hrs by LC/MS-MS analysis; assay type: ADME, organism-based; details: in vivo
A549 [25] = test: Induction of ROS generation in human A549 cells at 1 to 5 uM incubated for 48 hrs by DCFH-DA staining based FACS analysis; assay type: functional, cell-based
A549 [26] = test: Induction of apoptosis in human A549 cells assessed as activation of PARP at 1 to 5 uM incubated for 48 hrs by Western blot analysis; assay type: functional, cell-based
[27] = AUC (0 to 24 hrs) in female Sprague-Dawley rat at 10 mg/kg, po measured up to 24 hrs by LC/MS-MS analysis; assay type: ADME, organism-based; set-up: time < 24 hr, dose 10 mg/kg, route oral; details: in vivo
[28] = Cmax in female Sprague-Dawley rat at 10 mg/kg, po measured up to 24 hrs by LC/MS-MS analysis; assay type: ADME, organism-based; set-up: dose 10 mg/kg, route oral; details: in vivo
[29] = Subacute toxicity in SPF Kunming mouse assessed as heart morphological changes at 2000 mg/kg, po administered once a day for 14 days by H and E staining based microscopic analysis; assay type: organism-based; details: in vivo, 336 h
A549 [30] = test: Induction of apoptosis in human A549 cells assessed as increase in Bax level at 1 to 5 uM incubated for 48 hrs by Western blot analysis; assay type: functional, cell-based
[31] = Toxicity in athymic nude mouse xenografted with human A549 cells assessed as effect on lung morphological changes at 25 to 50 mg/kg, ip administered once daily for 21 days by H and E staining based assay; assay type: organism-based; details: in vivo, 504 h
[32] = Tmax in male Sprague-Dawley rat at 2 mg/kg, iv measured up to 24 hrs by LC/MS-MS analysis; assay type: ADME, organism-based; details: in vivo
[33] = MRT in male Sprague-Dawley rat at 2 mg/kg, iv measured up to 24 hrs by LC/MS-MS analysis; assay type: ADME, organism-based; details: in vivo
[34] = MRT in female Sprague-Dawley rat at 10 mg/kg, po measured up to 24 hrs by LC/MS-MS analysis; assay type: ADME, organism-based; details: in vivo
[35] = MRT in male Sprague-Dawley rat at 10 mg/kg, po measured up to 24 hrs by LC/MS-MS analysis; assay type: ADME, organism-based; details: in vivo
U-87 MG = test: Antiproliferative activity against human U87MG cells assessed as inhibition of cell growth incubated for 48 hrs by MTT assay; assay type: functional, cell-based, U-87MG ATCC
[36] = Acute toxicity in SPF Kunming mouse assessed as body weight at 500 mg/kg, po administered as single dose measured at day 7 (reference value: 30.2g); assay type: organism-based; details: in vivo
[37] = AUC (0 to 24 hrs) in male Sprague-Dawley rat at 2 mg/kg, iv measured up to 24 hrs by LC/MS-MS analysis; assay type: ADME, organism-based; set-up: dose 2 mg/kg, time < 24 hr, route intravenous; details: in vivo

Eukaryotic translation initiation factor 4E (Homo sapiens), sequence (P06730 whole entry): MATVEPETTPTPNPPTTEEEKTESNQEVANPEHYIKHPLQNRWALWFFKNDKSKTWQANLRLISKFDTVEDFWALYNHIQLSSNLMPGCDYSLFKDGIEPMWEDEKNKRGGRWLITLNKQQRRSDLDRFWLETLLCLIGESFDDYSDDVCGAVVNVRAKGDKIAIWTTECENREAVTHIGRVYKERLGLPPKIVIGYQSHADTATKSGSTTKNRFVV

In the case of Fc1ccc(/C=N/Nc2nc(-c3ccc(C(F)(F)F)cc3)cs2)cc1F, the Activity [1] was 29.9 g, the Activity [2] was 33.3 g and the Cmax [3] was 126000 nM. The inhibition (A549 [4]) was “Active”, the Activity (A549 [5]) was “Active” and the Activity [6] was 30.7 g. The Vd [7] was 0.12 L/kg, the Cmax [8] was 650 nM and the Activity [9] was “Non-Toxic”. The Activity (A549 [10]) was “Active”, the pIC50 (A549 [11]) was 5.58 and the inhibition (A549 [12]) was “Active”. For the same compound, the Activity [13] was “Active”, the Activity (A549 [14]) was “inactive” and the inhibition (A549 [15]) was “Active”. For the same compound, the Activity [16] was 34.9 g, the inhibition in vivo at 50 mg/kg (A549 [17]) was 75% and the Activity (A549 [18]) was “Active”. For the same compound, the inhibition [19] was “Active”, the Vd [20] was 0.19 L/kg and the pIC50 (HUVEC) was 4.10. The Activity (A549 [21]) was “Active”, the Activity [22] was 30.5 g and the half-life [23] was 1.12 h. The bioavailability [24] was 17.2%, the Activity (A549 [25]) was “Active” and the Activity (A549 [26]) was “Active”. The AUC(0-t) at 24 h [27] was 8.25 µM·h, the Cmax [28] was 960 nM and the Activity [29] was “Non-Toxic”. For the same compound, the Activity (A549 [30]) was “Active”, the Activity [31] was “Non-Toxic” and the Tmax [32] was 2 h. It also gave an MRT [33] of 4.42 h, an MRT [34] of 1.62 h and an MRT [35] of 1.83 h. It also gave a pIC50 (U-87 MG) of 4.52, an Activity [36] of 29.1 g and an AUC(0-t) at 24 h [37] of 155 µM·h.
